Data taken from patent US20250171495A1, “MUTLI-TARGETED SERINE PROTEASE INHIBITORS FOR TREATMENT OF CANCER AND VIRAL INFECTION” (Washington University, priority 2023, published 2025).
Read-outs that look alike come from different tables or passages of the source.

Columns and labels:
Format in all cases: biochemical
hepsin = target: T1, hepsin (Homo sapiens, UniProt P05981); experiment: Fluorogenic kinetic enzyme inhibitor assay, hepsin
T1 construct: purchased R&D Systems 4776-SE-010

matriptase = target: T2, matriptase (Homo sapiens, UniProt Q9Y5Y6); experiment: Fluorogenic kinetic enzyme inhibitor assay, matriptase
T2 construct: purchased R&D Systems 3946-SEB-010
T2 sequence (Q9Y5Y6 615-855 limits assumed): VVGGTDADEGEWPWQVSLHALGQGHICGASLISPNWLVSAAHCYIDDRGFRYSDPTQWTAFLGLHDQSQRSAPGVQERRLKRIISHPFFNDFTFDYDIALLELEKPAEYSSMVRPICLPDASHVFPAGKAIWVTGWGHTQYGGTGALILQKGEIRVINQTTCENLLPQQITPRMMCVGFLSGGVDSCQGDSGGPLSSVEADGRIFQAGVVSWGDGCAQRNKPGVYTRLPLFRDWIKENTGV

TMPRSS2 = TMPRSS2 (Homo sapiens, UniProt O15393); experiment: Fluorogenic kinetic enzyme inhibitor assay, TMPRSS2; parameters: purchased Cusabio Technology CSB-YP023924HU
Sequence of TMPRSS2 (O15393 106-492 limits assumed): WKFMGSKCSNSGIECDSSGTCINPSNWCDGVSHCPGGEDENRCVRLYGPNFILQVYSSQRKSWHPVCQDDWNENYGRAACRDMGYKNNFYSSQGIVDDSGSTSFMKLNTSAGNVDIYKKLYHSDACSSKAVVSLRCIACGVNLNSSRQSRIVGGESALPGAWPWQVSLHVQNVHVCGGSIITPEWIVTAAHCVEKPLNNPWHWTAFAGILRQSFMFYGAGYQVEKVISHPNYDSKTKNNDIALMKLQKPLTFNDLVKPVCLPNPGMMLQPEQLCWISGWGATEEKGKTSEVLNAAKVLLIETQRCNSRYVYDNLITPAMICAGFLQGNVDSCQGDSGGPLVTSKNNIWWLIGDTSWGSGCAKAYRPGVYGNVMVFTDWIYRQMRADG

T1 sequence (P05981 163-417 limits assumed): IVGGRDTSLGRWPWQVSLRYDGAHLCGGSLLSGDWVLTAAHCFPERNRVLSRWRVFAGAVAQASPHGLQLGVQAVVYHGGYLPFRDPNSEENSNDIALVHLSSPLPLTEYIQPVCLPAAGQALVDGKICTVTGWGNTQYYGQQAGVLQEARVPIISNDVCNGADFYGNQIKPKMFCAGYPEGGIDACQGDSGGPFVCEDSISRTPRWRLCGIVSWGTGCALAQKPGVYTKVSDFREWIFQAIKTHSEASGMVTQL
T1 sequence (P05981 1-162 partner limits assumed): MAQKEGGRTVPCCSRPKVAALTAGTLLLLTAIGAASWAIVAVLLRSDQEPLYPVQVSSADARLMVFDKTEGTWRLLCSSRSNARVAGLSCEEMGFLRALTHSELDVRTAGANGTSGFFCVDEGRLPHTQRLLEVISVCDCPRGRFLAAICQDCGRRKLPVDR

SMILES | IC50 (hepsin; read-out: Hepsin IC50) [nM] | IC50 (matriptase; read-out: Matriptase IC50) [nM] | IC50 (TMPRSS2; read-out: TMPRSS2 IC50) [nM] | IC50 (matriptase) [nM] | IC50 (hepsin) [nM] | IC50 (TMPRSS2) [nM]
CC(=O)N[C@@H](CO)C(=O)NCc1ccc(CC(=O)N[C@@H](CC(C)C)C(=O)N[C@@H](CCCNC(=N)N)C(=O)c2nc3ccccc3s2)cc1 [AJS3200, N-[(S)-1-[(1,3-benzothiazol-2-yl)carbonyl]-4-guanidinobutyl](S)-2-{[(p-{[(S)-2-acetylamino-3-hydroxypropionylamino]methyl}phenyl)methyl]carbonylamino}-4-methylvaleramide] | 2.81 | 9.52 | 0.376 | – | – | –
CC(=O)N[C@@H](CO)C(=O)NCc1ccc(C(=O)N[C@@H](CC(C)C)C(=O)N[C@@H](CCCNC(=N)N)C(=O)c2nc3ccccc3s2)cc1 [AJS4016] | 21.8 | 10.3 | 0.067 | – | – | –
CC(=O)N1C(C(=O)N[C@@H](CCC(=O)OC2CCCCC2)C(=O)N[C@@H](Cc2ccc(F)cc2)C(=O)N[C@@H](CCCNC(=N)N)C(=O)c2nc3ccccc3s2)CC2CCCCC21 (stereo partly drawn) [MF1064, cyclohexyl (S)-4-[(2R)-1-acetyloctahydro-2H-indol-2-ylcarbonylamino]-4-[N-(S)-2-(p-fluorophenyl)-1-[N-(S)-1-[(1,3-benzothiazol-2-yl)carbonyl]-4-guanidinobutylcarbamoyl]ethylcarbamoyl]butyrate] | 0.831 | – | 0.004 | 1.23 | – | –
CC(=O)N1c2ccccc2C[C@H]1C(=O)N[C@@H](CCC(=O)OC1CCCCC1)C(=O)N[C@@H](Cc1ccc(F)cc1)C(=O)N[C@@H](CCCNC(=N)N)C(=O)c1nc2ccccc2s1 [MF1065, cyclohexyl (S)-4-[(S)-1-acetyl-2-indolinylcarbonylamino]-4-[N-(S)-2-(p-fluorophenyl)-1-[N-(S)-1-[(1,3-benzothiazol-2-yl)carbonyl]-4-guanidinobutylcarbamoyl]ethylcarbamoyl]butyrate] | – | – | – | 3.49 | 1.76 | 0.062
C=CCOC(=O)CC[C@H](NC(=O)[C@@H]1CC2CCCCC2N1C(C)=O)C(=O)N[C@@H](Cc1ccc(F)cc1)C(=O)N[C@@H](CCCNC(=N)N)C(=O)c1nc2ccccc2s1 (stereo partly drawn) [MF1068, allyl (S)-4-[(2S)-1-acetyloctahydro-2H-indol-2-ylcarbonylamino]-4-[N-(S)-2-(p-fluorophenyl)-1-[N-(S)-1-[(1,3-benzothiazol-2-yl)carbonyl]-4-guanidinobutylcarbamoyl]ethylcarbamoyl]butyrate] | 0.308 | – | 0.083 | 0.375 | – | –
N=C(N)NCCC[C@H](NC(=O)[C@H](Cc1ccccc1)NC(=O)[C@H](CCC(N)=O)NS(=O)(=O)c1ccccc1)C(=O)c1nc2ccccc2s1 [MF1101, N-[(S)-1-[N-(S)-1-[(1,3-benzothiazol-2-yl)carbonyl]-4-guanidinobutylcarbamoyl]-2-phenylethyl](S)-2-(phenylsulfonylamino) glutaramide] | 0.8 | 2.89 | 1.02 | – | – | –
N=C(N)NCCC[C@H](NC(=O)[C@H](Cc1ccccc1)NC(=O)[C@H](CCC(N)=O)NS(=O)(=O)C1CC1)C(=O)c1nc2ccccc2s1 [MF1104, N-[(S)-1-[N-(S)-1-[(1,3-benzothiazol-2-yl)carbonyl]-4-guanidinobutylcarbamoyl]-2-phenylethyl](S)-2-(cyclopropylsulfonylamino) glutaramide] | 1.07 | 5.59 | 0.273 | – | – | –
N=C(N)NCCC[C@H](NC(=O)[C@H](Cc1ccccc1)NC(=O)[C@H](CCC(N)=O)NS(=O)(=O)Cc1ccccc1)C(=O)c1nc2ccccc2s1 [MF1105, N-[(S)-1-[N-(S)-1-[(1,3-benzothiazol-2-yl)carbonyl]-4-guanidinobutylcarbamoyl]-2-phenylethyl](S)-2-(benzylsulfonylamino) glutaramide] | 0.31 | 1.48 | 0.07 | – | – | –
CC(=O)N[C@@H](CCC(C)C)C(=O)N[C@@H](CCC(=O)OC1CCCCC1)C(=O)N[C@@H](Cc1ccc(F)cc1)C(=O)N[C@@H](CCCNC(=N)N)C(=O)c1nc2ccccc2s1 [MF1125, cyclohexyl (S)-4-[(S)-1-acetylamino-4-methylpentylcarbonylamino]-4-[N-(S)-2-(p-fluorophenyl)-1-[N-(S)-1-[(1,3-benzothiazol-2-yl)carbonyl]-4-guanidinobutylcarbamoyl]ethylcarbamoyl]butyrate] | – | – | – | 3.05 | 3.5 | 0.085
N=C(N)NCCC[C@H](NC(=O)[C@H](Cc1ccc(F)cc1)NC(=O)OCC1c2ccccc2-c2ccccc21)C(=O)c1nc2ccccc2s1 [MF1131, (S)-2-(p-fluorophenyl)-1-[N-(S)-1-[(1,3-benzothiazol-2-yl)carbonyl]-4-guanidinobutylcarbamoyl]ethyl (9H-fluoren-9-yl)methanecarbamate] | 1130 | 967 | 14 | – | – | –
N=C(N)NCCC[C@H](NC(=O)[C@H](Cc1ccc(F)c(F)c1)NC(=O)OCC1c2ccccc2-c2ccccc21)C(=O)c1nc2ccccc2s1 [MF1132, (S)-2-(3,4-difluorophenyl)-1-[N-(S)-1-[(1,3-benzothiazol-2-yl)carbonyl]-4-guanidinobutylcarbamoyl]ethyl (9H-fluoren-9-yl)methanecarbamate] | 231 | 144 | 28.6 | – | – | –
N=C(N)NCCC[C@H](NC(=O)[C@H](Cc1cccc(Cl)c1)NC(=O)OCC1c2ccccc2-c2ccccc21)C(=O)c1nc2ccccc2s1 [MF1134, (S)-2-(m-chlorophenyl)-1-[N-(S)-1-[(1,3-benzothiazol-2-yl)carbonyl]-4-guanidinobutylcarbamoyl] ethyl (9H-fluoren-9-yl)methanecarbamate] | 1630 | > 20000 | 6.3 | – | – | –
N=C(N)NCCC[C@H](NC(=O)[C@H](CCCCNC(=O)OCc1ccccc1Cl)NC(=O)OCC1c2ccccc2-c2ccccc21)C(=O)c1nc2ccccc2s1 [MF1151, (S)-5-{[(o-chlorophenyl)methyl] (oxycarbonylamino)}-1-[N-(S)-1-[(1,3-benzothiazol-2-yl)carbonyl]-4-guanidinobutylcarbamoyl] pentyl (9H-fluoren-9-yl)methanecarbamate] | – | 11.1 | 283 | – | – | –
N=C(N)NCCC[C@H](NC(=O)[C@@H](NC(=O)OCc1ccccc1)C1Cc2ccccc2C1)C(=O)c1nc2ccccc2s1 [MF2008, (S)-(2-indanyl)[N-(S)-1-[(1,3-benzothiazol-2-yl)carbonyl]-4-guanidinobutylcarbamoyl] methyl-phenylmethanecarbamate] | – | 75.3 | 0.303 | – | – | –
CC(C)(C)C[C@H](NC(=O)OCc1ccccc1)C(=O)N[C@@H](CCCNC(=N)N)C(=O)c1nc2ccccc2s1 [MF2009, (S)-3,3-dimethyl-1-[N-(S)-1-[(1,3-benzothiazol-2-yl)carbonyl]-4-guanidinobutylcarbamoyl] butyl-phenylmethanecarbamate] | – | > 20000 | 614 | – | – | –
N=C(N)NCCC[C@H](NC(=O)[C@H](Cc1ccc2ccccc2c1)NC(=O)OCC1c2ccccc2-c2ccccc21)C(=O)c1nc2ccccc2s1 [MF2012, (S)-2-(2-naphthyl)-1-[N-(S)-1-[(1,3-benzothiazol-2-yl)carbonyl]-4-guanidinobutylcarbamoyl] ethyl (9H-fluoren-9-yl)methanecarbamate] | – | > 20000 | 187 | – | – | –
